Literature values in patent US20260248129A1, “SPRAYABLE SUBSTANCES FOR PHOTOSYNTHESIS ENHANCEMENT” (Sensei Ag Holdings, Inc., priority 2023, published 2026).
≈ marks a conversion by molar mass, not a printed value. Read-outs that look alike come from different tables or passages of the source.

How the values were obtained:
[1] = ethanol, methanol, hexane, ether, and a variety of other solvents
[2] = not given; remark: listed apart in the source

In the case of c1ccc2cc3ccccc3cc2c1 [anthracene, Anthracene], the “solubility in water (in words)” value (water) is listed as “slightly soluble”, the water solubility (water at 25° C.) is listed as 0.044 mg/L (≈ 0.247 µM) and the “solubility in organic solvents (in words)” value [1] is listed as “very soluble”. For the same molecule, the “stability under light (in words)” value [2] was “does eventually degrade under light”.
In the case of O=c1ccc2ccccc2o1 [coumarin, Coumarin], the water solubility (water) is given as 0.17 mg/100 mL.
